{"source": "the Kinase Knowledgebase extract (Sharma et al. 2016)", "molecular_target": "EGFR (mouse) (UniProt P00533)", "conditions": "nih3t3 fibroblast"}
{"smiles": "COc1cccc(-c2ccc3c(c2)NC(=O)/C3=C\\c2[nH]cc(C)c2CCC(=O)O)c1", "values": [{"measurement": "IC50", "result": 49.2, "unit": "µM"}]}
{"smiles": "Cc1[nH]c(/C=C2\\C(=O)Nc3cc(-c4ccccc4)ccc32)c(C)c1CCC(=O)O", "values": [{"measurement": "IC50", "result": 21.9, "unit": "µM"}]}
{"smiles": "COc1ccccc1-c1ccc2c(c1)NC(=O)/C2=C\\c1[nH]cc(CCC(=O)O)c1C", "values": [{"measurement": "IC50", "result": 19.2, "unit": "µM"}]}
{"smiles": "COc1cccc(-c2ccc3c(c2)NC(=O)/C3=C\\c2[nH]c(C)c(CCC(=O)O)c2C)c1", "values": [{"measurement": "IC50", "result": 24.1, "unit": "µM"}]}
{"smiles": "Cc1c(CCC(=O)O)c[nH]c1/C=C1\\C(=O)Nc2ccc(C(=O)O)cc21", "values": [{"measurement": "IC50", "result": "> 50", "unit": "µM"}]}
{"smiles": "Cc1c[nH]c(/C=C2\\C(=O)Nc3ccccc32)c1CCC(=O)O", "values": [{"measurement": "IC50", "result": "> 50", "unit": "µM"}]}
{"smiles": "Cc1[nH]c(/C=C2\\C(=O)Nc3ccc(C(=O)O)cc32)c(C)c1CCC(=O)O", "values": [{"measurement": "IC50", "result": "> 50", "unit": "µM"}]}
{"smiles": "Cc1c(CCC(=O)O)c[nH]c1/C=C1\\C(=O)Nc2ccc(S(N)(=O)=O)cc21", "values": [{"measurement": "IC50", "result": "> 50", "unit": "µM"}]}
{"smiles": "Cc1c(CCC(=O)O)c[nH]c1/C=C1\\C(=O)Nc2cc(-c3ccccc3)ccc21", "values": [{"measurement": "IC50", "result": 21.8, "unit": "µM"}]}
{"smiles": "COc1ccc2c(c1)NC(=O)/C2=C\\c1[nH]c(C)c(CCC(=O)O)c1C", "values": [{"measurement": "IC50", "result": "> 50", "unit": "µM"}]}
{"smiles": "Cc1c(CCC(=O)O)c[nH]c1/C=C1\\C(=O)Nc2ccccc21", "values": [{"measurement": "IC50", "result": "> 50", "unit": "µM"}]}
{"smiles": "Cc1c[nH]c(/C=C2\\C(=O)Nc3ccc(Br)cc32)c1CCC(=O)O", "values": [{"measurement": "IC50", "result": "> 50", "unit": "µM"}]}
{"smiles": "CCOc1cccc(-c2ccc3c(c2)NC(=O)/C3=C\\c2[nH]cc(C)c2CCC(=O)O)c1", "values": [{"measurement": "IC50", "result": "> 50", "unit": "µM"}]}
{"smiles": "Cc1c[nH]c(/C=C2\\C(=O)Nc3cccc(C)c32)c1CCC(=O)O", "values": [{"measurement": "IC50", "result": 28.8, "unit": "µM"}]}
{"smiles": "Cc1[nH]c(/C=C2\\C(=O)Nc3ccc(Br)cc32)c(C)c1CCC(=O)O", "values": [{"measurement": "IC50", "result": "> 50", "unit": "µM"}]}
{"smiles": "COc1ccc2c(c1)NC(=O)/C2=C\\c1[nH]cc(CCC(=O)O)c1C", "values": [{"measurement": "IC50", "result": "> 50", "unit": "µM"}]}
